The test deals with T1, hP2X4 (human purinergic P2X receptor subtype 4) (Homo sapiens, UniProt Q99571).
T1 sequence (Q99571 1-404 isoform Q99571-2): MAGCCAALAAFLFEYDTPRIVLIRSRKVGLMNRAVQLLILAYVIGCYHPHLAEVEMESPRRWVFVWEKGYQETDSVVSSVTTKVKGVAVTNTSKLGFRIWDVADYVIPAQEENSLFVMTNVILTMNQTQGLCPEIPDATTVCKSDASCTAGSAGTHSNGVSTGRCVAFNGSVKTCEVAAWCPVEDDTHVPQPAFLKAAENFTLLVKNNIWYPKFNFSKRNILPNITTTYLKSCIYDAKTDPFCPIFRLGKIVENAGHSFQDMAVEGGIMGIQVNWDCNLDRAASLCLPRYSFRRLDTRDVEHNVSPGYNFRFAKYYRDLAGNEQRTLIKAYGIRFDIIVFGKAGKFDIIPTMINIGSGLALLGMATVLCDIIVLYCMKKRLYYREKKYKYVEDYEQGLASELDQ
The settings on record: P2X4 IC50 (nM), HEK293 cells stably expressing hP2X4; agonist BZ-ATP 2.5 μM; FLIPR calcium.
Procedure: Cells at 400,000 cells/mL were seeded into a 384-well plate (10,000 cells/well) 18-24 h prior to the FLIPR experiment and then incubated overnight in a cell incubator. […] Each well was added with 20 μL of 0.5×Calcium 6 fluorescent dye (Molecular Devices, R8190) and then the cells were subjected to dye-loading incubation at 37° C. for 1.5 h. Each well was added with 10 μL of respective test compound (dissolved in DMSO at a concentration of 10 mM and serially diluted with buffer) or vehicle and the mixture was equilibrated for 30 min at room temperature.
In the case of `CC(C)c1nccc2c(S(N)(=O)=O)cc(NC(=O)Cc3ccccc3Cl)cc12` [Compound 24, 2-(2-chlorophenyl)-N-(1-isopropyl-5-sulfamoylisoquinolin-7-yl)acetamide], the IC50 was less than 10 nM.
`NS(=O)(=O)c1cc(NC(=O)Cc2ccccc2Cl)cc2c1CCN(C(=O)C(F)(F)F)C2` [Compound 114, 2-(2-chlorophenyl)-N-(5-sulfamoyl-2-(2,2,2-trifluoroacetyl)-1,2,3,4-tetrahydroisoquinolin-7-yl) acetamide]: the IC50 lay within 10 to 50 nM.
In the case of `COc1nccc2c(S(N)(=O)=O)cc(NC(=O)Cc3ccc(Cl)cc3Cl)cc12` [Compound 92, 2-(2,4-dichlorophenyl)-N-(1-methoxy-5-sulfamoylisoquinolin-7-yl)acetamide] it was 50 to 200 nM.
Consider `CC(C)OC(=O)N1CCc2c(cc(NC(=O)Cc3ccccc3Cl)cc2S(N)(=O)=O)C1` [Compound 100, isopropyl-7-(2-(2-chlorophenyl)acetamido)-5-sulfamoyl-3,4-dihydroisoquinoline-2(1H)-carboxylate], for which the IC50 fell in the range of 10 to 50 nM.
Turning to `COc1ccc2c(S(N)(=O)=O)cc(NC(=O)Cc3ccccc3Cl)cc2n1` [Compound 65, 2-(2-chlorophenyl)-N-(2-methoxy-5-sulfamoylquinolin-7-yl)acetamide], the IC50 lay within 10 to 50 nM.
The result for `NS(=O)(=O)c1cc(NC(=O)Cc2ccccc2Cl)cc2cnc(F)cc12` [Compound 7, 2-(2-chlorophenyl)-N-(3-fluoro-5-sulfamoylisoquinolin-7-yl)acetamide] reads 50 to 200 nM; that for `NS(=O)(=O)c1cc(NC(=O)Cc2ccccc2Cl)cc2cnccc12` [Compound 6], 10 to 50 nM; that for `NS(=O)(=O)c1cc(NC(=O)Cc2ccccc2Cl)cc2ccnnc12` [Compound 41, 2-(2-chlorophenyl)-N-(8-sulfamoylcinnolin-6-yl)acetamide], 50 to 200 nM.
For the compound `CC(=O)N1CCc2c(cc(NC(=O)Cc3ccccc3Cl)cc2S(N)(=O)=O)C1` [Compound 102, N-(2-acetyl-5-sulfamoyl-1,2,3,4-tetrahydroisoquinolin-7-yl)-2-(2-chlorophenyl)acetamide], the IC50 fell in the range of 10 to 50 nM.
The result for `COc1nccc2c(S(N)(=O)=O)cc(NC(=O)Cc3ccccc3OC(F)(F)F)cc12` [Compound 96, N-(1-methoxy-5-sulfamoylisoquinolin-7-yl)-2-(2-(trifluoromethoxy)phenyl)acetamide] reads 200 to 5000 nM; that for `NS(=O)(=O)c1cc(NC(=O)Cc2ccccc2Cl)cc2cccnc12` [Compound 37, 2-(2-chlorophenyl)-N-(8-sulfamoylquinolin-6-yl)acetamide], 10 to 50 nM.
The result for `COc1nccc2c(S(N)(=O)=O)cc(NC(=O)Cc3c(Cl)cccc3Cl)cc12` [Compound 91, 2-(2,6-dichlorophenyl)-N-(1-methoxy-5-sulfamoylisoquinolin-7-yl)acetamide] reads 200 to 5000 nM.
As for `COc1ccc(Oc2nccc3c(S(N)(=O)=O)cc(NC(=O)Cc4ccccc4Cl)cc23)cc1` [Compound 35, 2-(2-chlorophenyl)-N-(1-(4-methoxyphenoxy)-5-sulfamoylisoquinolin-7-yl)acetamide], the half-inhibitory concentration (IC50) lay in the range of 10 to 50 nM.
The result for `NS(=O)(=O)c1cc(NC(=O)Cc2ccccc2Cl)cc2c1CCN(c1ccccc1)C2` [Compound 104, 2-(2-chlorophenyl)-N-(2-phenyl-5-sulfamoyl-1,2,3,4-tetrahydroisoquinolin-7-yl)acetamide] reads 50 to 200 nM; that for `NS(=O)(=O)c1cc(NC(=O)Cc2ccccc2Cl)cc2c(OC3CCC3)nccc12` [Compound 11, 2-(2-chlorophenyl)-N-(1-cyclobutoxy-5-sulfamoylisoquinolin-7-yl)acetamide], 10 to 50 nM; that for `COCCOc1ccc2c(S(N)(=O)=O)cc(NC(=O)Cc3ccccc3Cl)cc2n1` [Compound 74, 2-(2-chlorophenyl)-N-(2-(2-methoxyethoxy)-5-sulfamoylquinolin-7-yl)acetamide], 50 to 200 nM.
In the case of `CN1CCc2c(cc(NC(=O)Cc3ccccc3Cl)cc2S(N)(=O)=O)C1` [Compound 112, 2-(2-chlorophenyl)-N-(2-methyl-5-sulfamoyl-1,2,3,4-tetrahydroisoquinolin-7-yl)acetamide] it was 10 to 50 nM; in that of `NS(=O)(=O)c1cc(NC(=O)Cc2ccccc2Cl)cc2cnc(C(F)(F)F)cc12` [Compound 19, 2-(2-chlorophenyl)-N-(−5-sulfamoyl-3-(trifluoromethyl)isoquinolin-7-yl)acetamide], less than 10 nM; in that of `COc1nccc2c(S(N)(=O)=O)cc(NC(=O)Cc3cc(F)ccc3Cl)cc12` [Compound 93, 2-(2-Chloro-5-fluorophenyl)-N-(1-methoxy-5-sulfamoylisoquinolin-7-yl)acetamide], 50 to 200 nM.
Turning to `NS(=O)(=O)c1cc(NC(=O)Cc2ccccc2Cl)cc2c(OCC3CC3)nccc12` [Compound 16], the IC50 lay in the range of 10 to 50 nM.
In the case of `COc1nccc2c(S(N)(=O)=O)cc(NC(=O)Cc3c(O)cccc3Cl)cc12` [Compound 62, 2-(2-chloro-6-hydroxyphenyl)-N-(1-methoxy-5-sulfamoylisoquinolin-7-yl)acetamide] it was 200 to 5000 nM.
In the case of `CC(C)CCOc1nccc2c(S(N)(=O)=O)cc(NC(=O)Cc3ccccc3Cl)cc12` [Compound 15, 2-(2-chlorophenyl)-N-(1-(isopentyloxy)-5-sulfamoylisoquinolin-7-yl)acetamide] it was 50 to 200 nM; in that of `N#Cc1nccc2c(S(N)(=O)=O)cc(NC(=O)Cc3ccccc3Cl)cc12` [Compound 90], 50 to 200 nM.
For the compound `NS(=O)(=O)c1cc(NC(=O)Cc2ccccc2Cl)cc2nc(C3CC3)ccc12` [Compound 85, 2-(2-chlorophenyl)-N-(2-cyclopropyl-5-sulfamoylquinolin-7-yl)acetamide], the IC50 lay within 200 to 5000 nM.
In the case of `CC(C)Nc1ccc2c(S(N)(=O)=O)cc(NC(=O)Cc3ccccc3Cl)cc2n1` [Compound 73, 2-(2-chlorophenyl)-N-(2-(isopropylamino)-5-sulfamoylquinolin-7-yl)acetamide], the IC50 lay within 200 to 5000 nM.
With `CN1CCN(c2ccc3c(S(N)(=O)=O)cc(NC(=O)Cc4ccccc4Cl)cc3n2)CC1=O` [Compound 70, 2-(2-chlorophenyl)-N-(2-(4-methyl-3-carbonylpiperazin-1-yl)-5-sulfamoylquinolin-7-yl)acetamide], the IC50 lay within 50 to 200 nM.
Take `NS(=O)(=O)c1cc(NC(=O)Cc2ccccc2Cl)cc2c1CCN(c1ccc(F)cc1)C2` [Compound 120, 2-(2-chlorophenyl)-N-(2-(4-fluorophenyl)-5-sulfamoyl-1,2,3,4-tetrahydroisoquinolin-7-yl)acetamide]: the IC50 lay within 50 to 200 nM.
Take `N#Cc1nccc2c(S(N)(=O)=O)cc(NC(=O)Cc3ccccc3Cl)cc12` [Compound 44, 2-(2-chlorophenyl)-N-(1-cyano-5-sulfamoylisoquinolin-7-yl)acetamide]: the IC50 was in the range of 200 to 5000 nM.
Turning to `CC#Cc1ccc2c(S(N)(=O)=O)cc(NC(=O)Cc3ccccc3Cl)cc2n1` [Compound 87, 2-(2-chlorophenyl)-N-(2-(prop-1-yn-1-yl)-5-sulfamoylquinolin-7-yl)acetamide], the IC50 was 10 to 50 nM.
For the compound `COc1ccc(Nc2ccc3c(S(N)(=O)=O)cc(NC(=O)Cc4ccccc4Cl)cc3n2)cc1` [Trifluoroacetate of compound 71, 2-(2-chlorophenyl)-N-(2-((4-methoxyphenyl)amino)-5-sulfamoylquinolin-7-yl)acetamide], the half-maximal inhibitory concentration (IC50) was in the range of 200 to 5000 nM.
The result for `COC(=O)N1CCc2c(cc(NC(=O)Cc3ccccc3Cl)cc2S(N)(=O)=O)C1` [Compound 99, methyl 7-(2-(2-chlorophenyl)acetamido)-5-sulfamoyl-3,4-dihydroisoquinoline-2(1H)-carboxylate] reads 10 to 50 nM; that for `CN1CCN(c2ccc3c(S(N)(=O)=O)cc(NC(=O)Cc4ccccc4Cl)cc3n2)CC1` [Compound 69, 2-(2-chlorophenyl)-N-(2-(4-methylpiperazin-1-yl)-5-sulfamoylquinolin-7-yl)acetamide], 200 to 5000 nM.
As to `NS(=O)(=O)c1cc(NC(=O)Cc2ccccc2Cl)cc2cnc(N3CCCCC3)cc12` [Compound 77, 2-(2-chlorophenyl)-N-(3-(piperidin-1-yl)-5-sulfamoylisoquinolin-7-yl)acetamide], the IC50 is 50 to 200 nM.
For the compound `NS(=O)(=O)c1cc(NC(=O)Cc2ccccc2Cl)cc2cnc(C3CC3)cc12` [Compound 21, 2-(2-chlorophenyl)-N-(3-cyclopropyl-5-sulfamoylisoquinolin-7-yl)acetamide], the IC50 was less than 10 nM.
In the case of `NS(=O)(=O)c1cc(NC(=O)Cc2ccccc2Cl)cc2c(OC(F)(F)F)nccc12` [Compound 60, 2-(2-chlorophenyl)-N-(5-sulfamoyl-1-(trifluoromethoxy)isoquinolin-7-yl)acetamide] it was 50 to 200 nM.
The result for `NS(=O)(=O)c1cc(NC(=O)Cc2ccccc2Cl)cc2cncnc12` [Compound 40, 2-(2-chlorophenyl)-N-(8-sulfamoylquinazolin-6-yl)acetamide] reads 50 to 200 nM.
With `NS(=O)(=O)c1cc(NC(=O)Cc2ccccc2Cl)cc2c1CCN(Cc1ccccc1)C2` [Compound 110, N-(2-benzyl-5-sulfamoyl-1,2,3,4-tetrahydroisoquinolin-7-yl)-2-(2-chlorophenyl)acetamide], the IC50 lay within 200 to 5000 nM.
In the case of `NS(=O)(=O)c1cc(NC(=O)Cc2ccccc2Cl)cc2cnc(OCCO)cc12` [Compound 76, 2-(2-chlorophenyl)-N-(3-(2-hydroxyethoxy)-5-sulfamoylisoquinolin-7-yl)acetamide] it was 50 to 200 nM.

For orientation: IC50 means the point on the concentration scale where inhibition reaches its midpoint.
